Tested on: liver and glandular stomach cells
Test: Comet assay in rats (liver and glandular stomach)
Format: in vivo, rats (Crl:CD(SD))
Conditions: rats, 1000 mg/kg and 2000 mg/kg once daily for 3 days
Method: Combination Assay of Micronucleus Test and Comet Assay in Rats
The compound of Example 489 at doses of 1000 and 2000 mg/kg was orally administered to 8 to 9-week-old rats (Crl:CD(SD), five/group) once daily for 3 days, and micronucleus induction was evaluated in bone-marrow cells, and DNA damage was evaluated by DNA fragmentation of cell nucleus in the liver and glandular stomach.
Sample for comet assay was obtained from liver and glandular stomach by the following procedures. A part of left lateral lobe of liver was washed well with a cooled mincing buffer solution (Hanks' balanced salt solution containing 20 mmol/L EDTA and 10 vol % DMSO, pH7.5), and minced finely with dissecting scissors. This sample was kept on ice for 15 to 30 seconds, the precipitated large cell mass was removed, and the obtained cell suspension was kept on ice. Glandular stomach was added to a cooled mincing buffer solution, and kept on ice for 15 to 30 min. Then, the surface epithelium was removed by scraping gently twice, the stomach mucosa was washed well with a cooled mincing buffer solution, and the mucosa surface was taken out by scraping carefully four times or five times. This was kept on ice for 15 to 30 seconds, the precipitated large cell mass was removed, and the obtained cell suspension was kept on ice.
The liver and glandular stomach cell suspensions prepared by the above-mentioned procedures were added to 0.5 w/v % low-melting agarose so that the concentration became 10 vol % or less, 40 μL of the suspension was dropped to MAS-coated slide (Matsunami Glass Ind., Ltd.), and fixed to give a slide sample. The slide sample was immersed in a cooled cell lysate [an aqueous solution containing 2.5 mol/L sodium chloride, 100 mmol/L EDTA, 10 mmol/L tris(hydroxymethyl)aminomethane, 10 vol % DMSO and 1 vol % Triton X-100, pH 10.0], and kept overnight under light shielding in a refrigerator (2 to 8° C.).
The slide sample was washed with ultrapure water, set at random into an electrophoresis apparatus filled with an alkali buffer solution (an aqueous solution containing 0.3 mol/L sodium hydroxide and 1 mmol/L EDTA, pH >13) for electrophoresis. After confirming that the sample was completely immersed, the sample was left for 20 min to unwind the strands. Next, electrophorese was performed at a constant voltage of 0.7 to 1 V/cm (current is set about 0.30 A) for 20 min (the electrophoresis apparatus was kept on ice so that the alkali buffer solution for electrophoresis was kept at a constant temperature of 10° C. or below, during from the dissociation of the strands to electrophoresis). After electrophoresis, the slide sample was immersed in a neutralizing solution [0.4 mol/L aqueous tris(hydroxymethyl)aminomethane solution, pH 7.5] for 5 min or longer. Then, the slide sample was immersed in ethanol for 5 min or longer, and air-dried. […] The slide samples for negative control, test compound and positive control groups were encoded, and analyzed by the blind method. In each individual animal, 150 of suitable cells were selected for observation using a biological microscope with fluorescence attachment at 200-fold final magnification, and analyzed by image analysis software (Comet Assay IV, Perceptive Instruments Ltd.). The degree of the DNA damage was evaluated by % tail intensity calculated automatically from image analysis software. The median of the % tail intensity was calculated in each slide sample, and the average of the median was calculated in each individual. […]

## O=C1c2cc(-c3nnc(C(F)F)o3)cnc2CN1[C@@H]1CCCC[C@H]1NC(=O)C(F)(F)C(F)(F)F [Example 489, N-((1R,2R)-2-(3-(5-(difluoromethyl)-1,3,4-oxadiazol-2-yl)-5-oxo-5,7-dihydro-6H-pyrrolo[3,4-b]pyridin-6-yl)cyclohexyl)-2,2,3,3,3-pentafluoropropanamide]
  DNA strand breakage in liver and glandular stomach cells: not induced
